From the supplement of paper PMC10307832

Legend:
Test in all cases: relative viability (nuclei count vs DMSO), 5 days (fraction); higher = more cells survive
[1] = compound: Cc1nc(Nc2ncc(C(=O)Nc3c(C)cccc3Cl)s2)cc(N2CCN(CCO)CC2)n1 [Dasatinib] + NC(=O)Nc1cc(-c2cccc(F)c2)sc1C(=O)N[C@H]1CCCNC1 [AZD7762] (partner 0.2 µM)
Outline: (§1)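 Five library-drug doses in √10 steps were combined with a fixed anchor-drug dose, or a single drug was given alone, by pin tool to lung cancer cell lines in 1536-well plates the day after seeding. Nuclei were stained and counted after 5 days. Relative viability is the nuclei count in treated wells over that in vehicle wells, taken as the median of duplicate plates.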

[2] = compound: Cc1nc(Nc2ncc(C(=O)Nc3c(C)cccc3Cl)s2)cc(N2CCN(CCO)CC2)n1 [Dasatinib] + Cc1nc(NC(=O)N2CCC[C@H]2C(N)=O)sc1-c1ccnc(C(C)(C)C(F)(F)F)c1 [Alpelisib] (partner 2 µM)
Outline: as §1

[3] = compound: Cc1ccc(C(=O)Nc2cccc(C(F)(F)F)c2)cc1Nc1cncc(C(N)=O)c1 [ALW-II-49-7] + O=C(c1cc(Cc2n[nH]c(=O)c3ccccc23)ccc1F)N1CCN(C(=O)C2CC2)CC1 [Olaparib] (partner 8 µM)
Outline: as §1

[4] = compound: C1CC1C(=O)NC2=NNC3=C2C=CC(=C3)C4=CC(=CC=C4)C(=O)NC5CC5 [XMD13-2] + COc1cccc2cc(-c3nc([C@H]4CC[C@H](C(=O)O)CC4)n4ncnc(N)c34)[nH]c12 [OSI-027] (partner 0.5 µM)
Outline: as §1

NCI-H2126
relative viability ([1]; first compound 0.005 µM): 0.971
relative viability ([1]; first compound 0.01581 µM): 0.847
relative viability ([1]; first compound 0.05 µM): 0.98
relative viability ([1]; first compound 0.1581 µM): 0.885
relative viability ([1]; first compound 0.5 µM): 0.511
relative viability ([2]; first compound 0.005 µM): 0.761
relative viability ([2]; first compound 0.01581 µM): 0.643
relative viability ([2]; first compound 0.05 µM): 0.65
relative viability ([2]; first compound 0.1581 µM): 0.518
relative viability ([2]; first compound 0.5 µM): 0.339
relative viability ([3]; first compound 0.08 µM): 0.823
relative viability ([3]; first compound 0.253 µM): 0.882
relative viability ([3]; first compound 0.8 µM): 0.979
relative viability ([3]; first compound 2.53 µM): 0.891
relative viability ([3]; first compound 8 µM): 0.87
relative viability ([4]; first compound 0.05 µM): 0.8
relative viability ([4]; first compound 0.1581 µM): 0.665
relative viability ([4]; first compound 0.5 µM): 0.666
relative viability ([4]; first compound 1.581 µM): 0.702
relative viability ([4]; first compound 5 µM): 0.837

NCI-H2170
relative viability ([1]; first compound 0.005 µM): 0.864
relative viability ([1]; first compound 0.01581 µM): 0.779
relative viability ([1]; first compound 0.05 µM): 0.633
relative viability ([1]; first compound 0.1581 µM): 0.409
relative viability ([1]; first compound 0.5 µM): 0.278
relative viability ([2]; first compound 0.005 µM): 0.738
relative viability ([2]; first compound 0.01581 µM): 0.649
relative viability ([2]; first compound 0.05 µM): 0.644
relative viability ([2]; first compound 0.1581 µM): 0.449
relative viability ([2]; first compound 0.5 µM): 0.382
relative viability ([3]; first compound 0.08 µM): 0.76
relative viability ([3]; first compound 0.253 µM): 0.595
relative viability ([3]; first compound 0.8 µM): 0.562
relative viability ([3]; first compound 2.53 µM): 0.535
relative viability ([3]; first compound 8 µM): 0.603
relative viability ([4]; first compound 0.05 µM): 0.748
relative viability ([4]; first compound 0.1581 µM): 0.703
relative viability ([4]; first compound 0.5 µM): 0.744
relative viability ([4]; first compound 1.581 µM): 0.559
relative viability ([4]; first compound 5 µM): 0.704

NCI-H2347
relative viability ([1]; first compound 0.005 µM): 0.614
relative viability ([1]; first compound 0.01581 µM): 0.538
relative viability ([1]; first compound 0.05 µM): 0.549
relative viability ([1]; first compound 0.1581 µM): 0.296
relative viability ([1]; first compound 0.5 µM): 0.282
relative viability ([2]; first compound 0.005 µM): 0.845
relative viability ([2]; first compound 0.01581 µM): 0.817
relative viability ([2]; first compound 0.05 µM): 0.783
relative viability ([2]; first compound 0.1581 µM): 0.327
relative viability ([2]; first compound 0.5 µM): 0.34
relative viability ([3]; first compound 0.08 µM): 0.596
relative viability ([3]; first compound 0.253 µM): 0.568
relative viability ([3]; first compound 0.8 µM): 0.562
relative viability ([3]; first compound 2.53 µM): 0.545
relative viability ([3]; first compound 8 µM): 0.556
relative viability ([4]; first compound 0.05 µM): 0.394
relative viability ([4]; first compound 0.1581 µM): 0.455
relative viability ([4]; first compound 0.5 µM): 0.426
relative viability ([4]; first compound 1.581 µM): 0.444
relative viability ([4]; first compound 5 µM): 0.413

NCI-H2405
relative viability ([1]; first compound 0.005 µM): 0.656
relative viability ([1]; first compound 0.01581 µM): 0.514
relative viability ([1]; first compound 0.05 µM): 0.368
relative viability ([1]; first compound 0.1581 µM): 0.212
relative viability ([1]; first compound 0.5 µM): 0.228
relative viability ([2]; first compound 0.005 µM): 0.621
relative viability ([2]; first compound 0.01581 µM): 0.334
relative viability ([2]; first compound 0.05 µM): 0.366
relative viability ([2]; first compound 0.1581 µM): 0.23
relative viability ([2]; first compound 0.5 µM): 0.162
relative viability ([3]; first compound 0.08 µM): 0.856
relative viability ([3]; first compound 0.253 µM): 0.97
relative viability ([3]; first compound 0.8 µM): 0.86
relative viability ([3]; first compound 2.53 µM): 0.811
relative viability ([3]; first compound 8 µM): 0.785
relative viability ([4]; first compound 0.05 µM): 0.632
relative viability ([4]; first compound 0.1581 µM): 0.543
relative viability ([4]; first compound 0.5 µM): 0.587
relative viability ([4]; first compound 1.581 µM): 0.676
relative viability ([4]; first compound 5 µM): 0.598

NCI-H3122
relative viability ([1]; first compound 0.005 µM): 0.991
relative viability ([1]; first compound 0.01581 µM): 0.982
relative viability ([1]; first compound 0.05 µM): 0.951
relative viability ([1]; first compound 0.1581 µM): 0.876
relative viability ([1]; first compound 0.5 µM): 0.643
relative viability ([2]; first compound 0.005 µM): 0.835
relative viability ([2]; first compound 0.01581 µM): 0.858
relative viability ([2]; first compound 0.05 µM): 0.87
relative viability ([2]; first compound 0.1581 µM): 0.693
relative viability ([2]; first compound 0.5 µM): 0.718
relative viability ([3]; first compound 0.08 µM): 0.636
relative viability ([3]; first compound 0.253 µM): 0.657
relative viability ([3]; first compound 0.8 µM): 0.642
relative viability ([3]; first compound 2.53 µM): 0.705
relative viability ([3]; first compound 8 µM): 0.537
relative viability ([4]; first compound 0.05 µM): 1.02
relative viability ([4]; first compound 0.1581 µM): 0.924
relative viability ([4]; first compound 0.5 µM): 1.02
relative viability ([4]; first compound 1.581 µM): 0.917
relative viability ([4]; first compound 5 µM): 0.7

PC-3 [JPC-3]
relative viability ([1]; first compound 0.005 µM): 0.98
relative viability ([1]; first compound 0.01581 µM): 1.04
relative viability ([1]; first compound 0.05 µM): 0.755
relative viability ([1]; first compound 0.1581 µM): 0.528
relative viability ([1]; first compound 0.5 µM): 0.427
relative viability ([2]; first compound 0.005 µM): 1.08
relative viability ([2]; first compound 0.01581 µM): 1.09
relative viability ([2]; first compound 0.05 µM): 1.12
relative viability ([2]; first compound 0.1581 µM): 0.966
relative viability ([2]; first compound 0.5 µM): 0.477
relative viability ([3]; first compound 0.08 µM): 0.693
relative viability ([3]; first compound 0.253 µM): 1.2
relative viability ([3]; first compound 0.8 µM): 1.24
relative viability ([3]; first compound 2.53 µM): 1.05
relative viability ([3]; first compound 8 µM): 1
relative viability ([4]; first compound 0.05 µM): 0.831
relative viability ([4]; first compound 0.1581 µM): 0.663
relative viability ([4]; first compound 0.5 µM): 0.746
relative viability ([4]; first compound 1.581 µM): 0.707
relative viability ([4]; first compound 5 µM): 0.754

PC-14
relative viability ([1]; first compound 0.005 µM): 0.405
relative viability ([1]; first compound 0.01581 µM): 0.468
relative viability ([1]; first compound 0.05 µM): 0.34
relative viability ([1]; first compound 0.1581 µM): 0.401
relative viability ([1]; first compound 0.5 µM): 0.112
relative viability ([2]; first compound 0.005 µM): 0.916
relative viability ([2]; first compound 0.01581 µM): 0.85
relative viability ([2]; first compound 0.05 µM): 0.734
relative viability ([2]; first compound 0.1581 µM): 0.546
relative viability ([2]; first compound 0.5 µM): 0.185
relative viability ([3]; first compound 0.08 µM): 0.282
relative viability ([3]; first compound 0.253 µM): 0.227
relative viability ([3]; first compound 0.8 µM): 0.264
relative viability ([3]; first compound 2.53 µM): 0.253
relative viability ([3]; first compound 8 µM): 0.273
relative viability ([4]; first compound 0.05 µM): 1.04
relative viability ([4]; first compound 0.1581 µM): 0.832
relative viability ([4]; first compound 0.5 µM): 0.98
relative viability ([4]; first compound 1.581 µM): 0.842
relative viability ([4]; first compound 5 µM): 0.971

RERF-LC-KJ
relative viability ([1]; first compound 0.005 µM): 1.06
relative viability ([1]; first compound 0.01581 µM): 0.824
relative viability ([1]; first compound 0.05 µM): 0.889
relative viability ([1]; first compound 0.1581 µM): 0.761
relative viability ([1]; first compound 0.5 µM): 0.6
relative viability ([2]; first compound 0.005 µM): 0.823
relative viability ([2]; first compound 0.01581 µM): 0.496
relative viability ([2]; first compound 0.05 µM): 0.665
relative viability ([2]; first compound 0.1581 µM): 0.614
relative viability ([2]; first compound 0.5 µM): 0.432
relative viability ([3]; first compound 0.08 µM): 0.988
relative viability ([3]; first compound 0.253 µM): 1.06
relative viability ([3]; first compound 0.8 µM): 0.874
relative viability ([3]; first compound 2.53 µM): 0.856
relative viability ([3]; first compound 8 µM): 0.725
relative viability ([4]; first compound 0.05 µM): 0.655
relative viability ([4]; first compound 0.1581 µM): 0.662
relative viability ([4]; first compound 0.5 µM): 0.624
relative viability ([4]; first compound 1.581 µM): 0.564
relative viability ([4]; first compound 5 µM): 0.452
